Results published in ChEMBL document CHEMBL4828777, “Effect of the Chromone Core Substitution of Dirchromone on the Resultant Biological Activities” (J Nat Prod, 2021).
Converted amounts (≈) assume the structure as drawn.

Assays:
Staphylococcus aureus = assay: Antibacterial activity against Staphylococcus aureus ATCC 25923 assessed as reduction in bacterial growth incubated for 24 hrs by microdilution method; assay type: functional
Candida albicans = assay: […] activity against Candida albicans ATCC 10231 assessed as reduction in fungal growth incubated for 24 hrs by microdilution method; assay type: functional
DLD-1 = assay: Cytotoxicity against human DLD-1 cells assessed as reduction in cell viability incubated for 48 hrs by Hoechst staining based assay; assay type: functional; conditions: DLD-1, 48 h
A549 = assay: Cytotoxicity against human A549 cells assessed as reduction in cell viability incubated for 48 hrs by Hoechst staining based assay; assay type: functional; conditions: A549, 48 h
[1] = Cytotoxicity against human WS1 cells assessed as reduction in cell viability incubated for 48 hrs by Hoechst staining based assay; conditions: WS1, 48 h

Row | Molecule | MIC90 (Staphylococcus aureus) [µM] | MIC90 (Candida albicans) [µM] | IC50 (DLD-1) [nM] | IC50 (A549) [nM] | IC50 [1] [nM]
1 | CCCCCOc1ccc2oc(/C=C/[S+](C)[O-])cc(=O)c2c1 (racemic) | 4.3 (≈ 1.38 µg/mL) | 7 (≈ 2.24 µg/mL) | 6600 | 1600 | 1700
2 | CCCCOc1ccc2oc(/C=C/[S+](C)[O-])cc(=O)c2c1 (racemic) | 5.4 (≈ 1.65 µg/mL) | 14.1 (≈ 4.32 µg/mL) | 4800 | 1400 | 1100
3 | CC(C)C(=O)Oc1ccc2oc(/C=C/[S+](C)[O-])cc(=O)c2c1 (racemic) | 9 (≈ 2.88 µg/mL) | > 100 | 9100 | 2400 | 1900
4 | CC(C)CC(=O)Oc1ccc2oc(/C=C/[S+](C)[O-])cc(=O)c2c1 (racemic) | 5.1 (≈ 1.71 µg/mL) | 72 (≈ 24.1 µg/mL) | 6100 | 2300 | 1700
5 | Cc1ccc2c(=O)cc(/C=C/[S+](C)[O-])oc2c1 (racemic) | 10 (≈ 2.48 µg/mL) | > 100 | 7000 | 2000 | 1900
6 | CC(C)COc1ccc2oc(/C=C/[S+](C)[O-])cc(=O)c2c1 (racemic) | 5.7 (≈ 1.75 µg/mL) | 13.4 (≈ 4.11 µg/mL) | 5000 | 1100 | 1200
7 | C[S+]([O-])/C=C/c1cc(=O)c2cc(F)ccc2o1 (racemic) | 5.3 (≈ 1.34 µg/mL) | > 100 | 7000 | 2100 | 1700
8 | Cc1c(/C=C/[S+](C)[O-])oc2ccccc2c1=O (racemic) | 20 (≈ 4.97 µg/mL) | > 100 | 7200 | 1500 | 2100
9 | CC(C)CCOc1ccc2oc(/C=C/[S+](C)[O-])cc(=O)c2c1 (racemic) | 2.8 (≈ 0.897 µg/mL) | 8.4 (≈ 2.69 µg/mL) | 4100 | 1000 | 850
10 | C[S+]([O-])/C=C/c1cc(=O)c2ccccc2o1 (racemic) | 9 (≈ 2.11 µg/mL) | > 100 | 8000 | 1900 | 2000
11 | CCCC(=O)Oc1ccc2oc(/C=C/[S+](C)[O-])cc(=O)c2c1 (racemic) | 7.2 (≈ 2.31 µg/mL) | > 100 | 8700 | 2200 | 1500
12 | COc1cccc2oc(/C=C/[S+](C)[O-])cc(=O)c12 (racemic) | 43 (≈ 11.4 µg/mL) | > 100 | > 10000 | 3800 | 3800
13 | COc1ccc2oc(/C=C/[S+](C)[O-])cc(=O)c2c1 (racemic) | 6.1 (≈ 1.61 µg/mL) | > 100 | 5700 | 1600 | 1300
14 | Cc1ccc2oc(/C=C/[S+](C)[O-])cc(=O)c2c1 (racemic) | 10 (≈ 2.48 µg/mL) | > 100 | 7000 | 1700 | 1800
15 | Cc1cccc2c(=O)cc(/C=C/[S+](C)[O-])oc12 (racemic) | 10 (≈ 2.48 µg/mL) | > 100 | 6800 | 1700 | 2200
16 | CCOc1ccc2oc(/C=C/[S+](C)[O-])cc(=O)c2c1 (racemic) | 11.4 (≈ 3.17 µg/mL) | 67 (≈ 18.6 µg/mL) | 4900 | 1500 | 2000
17 | C[C@@H]1[C@H](O)[C@@H](C)/C=C/C=C/C=C/C=C/C=C/C=C/C=C/[C@H](O[C@@H]2O[C@H](C)[C@@H](O)[C@H](N)[C@@H]2O)C[C@@H]2O[C@](O)(C[C@@H](O)C[C@@H](O)[C@H](O)CC[C@@H](O)C[C@@H](O)CC(=O)O[C@H]1C)C[C@H](O)[C@H]2C(=O)O [AMPHOTERICIN B] |  | 1.4 (≈ 1.29 µg/mL) |  |  | 
18 | C[S+]([O-])/C=C/c1oc2ccccc2c(=O)c1Cc1ccccc1 (racemic) | 2.9 (≈ 0.941 µg/mL) | > 100 | 5100 | 1300 | 1200

Row | Molecule | MIC90 (Staphylococcus aureus) [µM] | MIC90 (Candida albicans) [µM] | IC50 (DLD-1) [nM] | IC50 (A549) [nM] | IC50 [1] [nM]
19 | Cc1cccc2oc(/C=C/[S+](C)[O-])cc(=O)c12 (racemic) | 23 (≈ 5.71 µg/mL) | > 100 | 5500 | 1300 | 1900
20 | COc1cccc2c(=O)cc(/C=C/[S+](C)[O-])oc12 (racemic) | 11 (≈ 2.91 µg/mL) | > 100 | 9000 | 2200 | 1900
21 | C[S+]([O-])/C=C/c1cc(=O)c2cc(C#N)ccc2o1 (racemic) | 5.6 (≈ 1.45 µg/mL) | > 100 | > 10000 | > 10000 | > 10000
22 | CC(C)Oc1ccc2oc(/C=C/[S+](C)[O-])cc(=O)c2c1 (racemic) | 11.1 (≈ 3.25 µg/mL) | 84 (≈ 24.6 µg/mL) | 8000 | 1500 | 1400
23 | CCCOc1ccc2oc(/C=C/[S+](C)[O-])cc(=O)c2c1 (racemic) | 11 (≈ 3.22 µg/mL) | 39 (≈ 11.4 µg/mL) | 6200 | 1100 | 1900
24 | C[S+]([O-])/C=C/c1cc(=O)c2cc(O)ccc2o1 (racemic) | 24 (≈ 6.01 µg/mL) | > 100 | > 10000 | 10500 | 7500
25 | C[S+]([O-])/C=C/c1cc(=O)c2cc(OC(=O)C(C)(C)C)ccc2o1 (racemic) | 10 (≈ 3.34 µg/mL) | 71 (≈ 23.7 µg/mL) | 8000 | 1600 | 1000
26 | COc1cc([C@@H]2c3cc4c(cc3[C@@H](O[C@@H]3O[C@@H]5CO[C@@H](C)O[C@H]5[C@H](O)[C@H]3O)[C@H]3COC(=O)[C@H]23)OCO4)cc(OC)c1O [ETOPOSIDE] |  |  | 570 | 4800 | 47000
27 | COc1ccc2c(=O)cc(/C=C/[S+](C)[O-])oc2c1 (racemic) | 20 (≈ 5.29 µg/mL) | > 100 | 7800 | 2200 | 1800
28 | C[S+]([O-])/C=C/c1cc(=O)c2cc(Br)ccc2o1 (racemic) | 2.5 (≈ 0.783 µg/mL) | 47 (≈ 14.7 µg/mL) | 4500 | 1100 | 1000
29 | C[S+]([O-])/C=C/c1cc(=O)c2cc3c(cc2o1)OCO3 (racemic) | 39 (≈ 10.9 µg/mL) | > 100 | 6000 | 2100 | 2000
30 | C[S+]([O-])/C=C/c1cc(=O)c2cc(Cl)ccc2o1 (racemic) | 2.7 (≈ 0.726 µg/mL) | > 100 | 6500 | 1700 | 1600
31 | GENTAMICIN | 0.09 |  |  |  | 
32 | CC(=O)Oc1ccc2oc(/C=C/[S+](C)[O-])cc(=O)c2c1 (racemic) | 11 (≈ 3.22 µg/mL) | > 100 | > 10000 | 4100 | 2500
33 | CCC(=O)Oc1ccc2oc(/C=C/[S+](C)[O-])cc(=O)c2c1 (racemic) | 10 (≈ 3.06 µg/mL) | > 100 | 9000 | 2400 | 2100
34 | C[S+]([O-])/C=C/c1cc(=O)c2ccc3ccccc3c2o1 (racemic) | 4.8 (≈ 1.36 µg/mL) | > 100 | 7000 | 1400 | 1900
35 | C[S+]([O-])/C=C/c1cc(=O)c2c(ccc3ccccc32)o1 (racemic) | 18 (≈ 5.12 µg/mL) | > 100 | 4300 | 940 | 880
36 | CCCCC(=O)Oc1ccc2oc(/C=C/[S+](C)[O-])cc(=O)c2c1 (racemic) | 5.1 (≈ 1.71 µg/mL) | 47 (≈ 15.7 µg/mL) | 6700 | 2400 | 1800
